From publication PMC12331786, “Component characterization of Smilax glabra Roxb., and its inhibitory activity against Helicobacter pylori through targeted suppression of its secreted urease” (Frontiers in Cellular and Infection Microbiology, 2025) come the findings set out here.

Test [1] has as its target T1, H. pylori urease (HPU) (Helicobacter pylori, UniProt P69996).
T1 construct: The resulting HPU preparation represents a crude enzyme extract; endogenous in cells; host or cells: H. pylori strain ATCC 43504 (crude enzyme extract, method of Matsubara et al. 2003)
The test can be described thus: biochemical. Type of test: biochemical, H. pylori strain ATCC 43504. On the procedure: H. pylori was inoculated in Campylobacter agar and grown on Columbia agar with appropriate bovine serum albumin at 37°C, 98% humidity, and low aerobic conditions (5% O2, 10% CO2, and 85% N2) for 72 hours. Three days later, H. pylori was collected by scraping and then suspended in phosphate buffered saline (PBS). Besides, the H. pylori concentration was calibrated to 1×10^8 CFU/mL by turbidimetric method. Standard HPU was extracted from H. pylori strain ATCC 43504 following the approach detailed by [Matsubara et al. (2003)]. The resulting HPU preparation represents a crude enzyme extract, which has been widely adopted for initial inhibitor screening studies ([Li et al., 2018]; [Tan et al., 2017]; [Yu et al., 2015]). All inhibition assays included appropriate controls (enzyme blanks and solvent controls) to ensure specific detection of urease activity.
(§1) The protein concentration of HPU was tested utilizing BCA protein detection kit. Standard urease test mixture consists of 150 mM urea in HEPES buffer (20 mM). HPU solution of varying concentrations was mixed with 150 mM urea as the substrate in a HEPES buffer (20 mM), and then reacted at 37 °C for 20 min. Urease vitality was assessed based on ammonia levels generated during the reaction. Ultimately, residual urease activity was measured by modified Berthelot (phenol hypochlorite) at 595 nm. This experiment was performed three times in parallel.
(§2) Test drug solution with equal volume and different concentration was mixed with urease and incubated in a 96-well plate at 37°C for 20 min. AHA was used as the positive control, while urease with urea (no depressor) served as the negative control. Moreover, urea solution (150 mM) was admixed and coincubated at ambient temperature for 20 min. Residual urease activity was measured via using the modified Berthelot method. The percentage of residual activity (RA%) was calculated as (A^sample - A^blank)/(A^negative control - A^blank)×100%, where A^blank represents the background absorbance without urease. Calculating the half-maximal inhibitory concentration (IC50) of the depressor to assess the impact of the test drug towards enzyme activity. Each experiment was conducted in triplicate for validation.

The target in test [2] is T2, jack bean urease (JBU) (Canavalia ensiformis, UniProt P07374).
T2 construct: purchased Sigma Aldrich
T2 sequence (P07374 whole entry, looked up): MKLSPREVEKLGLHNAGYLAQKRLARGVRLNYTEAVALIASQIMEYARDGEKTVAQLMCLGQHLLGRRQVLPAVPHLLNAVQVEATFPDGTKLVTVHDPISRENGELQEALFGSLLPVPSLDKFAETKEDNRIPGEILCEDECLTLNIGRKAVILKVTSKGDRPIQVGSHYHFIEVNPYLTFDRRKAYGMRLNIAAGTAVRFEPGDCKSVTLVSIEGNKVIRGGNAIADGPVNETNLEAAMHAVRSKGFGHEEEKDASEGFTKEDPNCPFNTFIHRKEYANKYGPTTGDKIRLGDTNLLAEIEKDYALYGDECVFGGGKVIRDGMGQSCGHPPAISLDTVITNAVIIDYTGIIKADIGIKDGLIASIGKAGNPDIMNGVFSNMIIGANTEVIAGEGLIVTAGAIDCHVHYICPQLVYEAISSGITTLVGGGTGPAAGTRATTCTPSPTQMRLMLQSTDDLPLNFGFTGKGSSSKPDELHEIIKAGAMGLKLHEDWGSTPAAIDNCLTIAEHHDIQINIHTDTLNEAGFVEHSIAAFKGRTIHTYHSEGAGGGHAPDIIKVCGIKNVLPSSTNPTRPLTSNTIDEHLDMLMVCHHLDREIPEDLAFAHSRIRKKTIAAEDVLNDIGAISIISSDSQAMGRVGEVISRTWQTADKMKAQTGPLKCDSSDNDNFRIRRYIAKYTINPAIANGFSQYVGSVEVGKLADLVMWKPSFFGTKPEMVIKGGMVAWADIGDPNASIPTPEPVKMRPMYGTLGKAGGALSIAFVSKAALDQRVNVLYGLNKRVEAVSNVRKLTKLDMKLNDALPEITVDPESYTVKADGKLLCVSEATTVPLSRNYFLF
The test can be described thus: biochemical. In kind it is biochemical.
Text: Campylobacter agar medium was purchased from Thermo Fisher Scientific. Acetylhydroxamic acid (AHA), jack bean urease (JBU, type III with specific activity 40.3 U/mg solid) and urea were obtained from Sigma Aldrich. Boric acid (BA) and sodium fluoride (NaF) were purchased from Maclin (Shanghai, China). Dithiothreitol (DTT) and L-cysteine (L-cys) were obtained from Solaibao (Beijing, China). Glutathione (GSH) was obtained from Meilun (Dalian, China). HEPES (Amresco >99%) was from BioFroxx. All chemicals and reagents were of analytic purity.
as §1, §2

Test [3] deals with T1, H. pylori urease (HPU). In words: biochemical. In kind it is biochemical, H. pylori strain ATCC 43504. As for the experimental part: Residual urease activity was determined by pre-incubating test drug, urease mixture with a series of urea concentrations. Michaelis constant (KM ) and maximum velocity (vmax ) values are obtained from the Lineweaver-Burk plots of 1/v and 1/urea by plotting the reciprocal reaction velocity and substrate concentration. Variation characteristics of urease kinetic parameters KM and vmax were analyzed by adding different concentrations of test products to determine the type of inhibiting effect on HPU. Each sample was performed in triplicate.
This is another data set of the same source.

Test [4] concerns the target T2, jack bean urease (JBU). The test can be described thus: biochemical. In kind it is biochemical. This is another data set of the same source.
The test system of test [5] is H. pylori strains (ATCC 43504, NCTC 26695, ICDC 111001). In words: Minimal inhibitory concentration assay (agar dilution method). In kind it is cell-based. The settings on record: Helicobacter pylori, H. pylori strain ICDC 111001.

≈ marks a conversion by molar mass, not a printed value. Where two headings read alike, the source gives them in different places.

T1 sequence (P14916 whole entry): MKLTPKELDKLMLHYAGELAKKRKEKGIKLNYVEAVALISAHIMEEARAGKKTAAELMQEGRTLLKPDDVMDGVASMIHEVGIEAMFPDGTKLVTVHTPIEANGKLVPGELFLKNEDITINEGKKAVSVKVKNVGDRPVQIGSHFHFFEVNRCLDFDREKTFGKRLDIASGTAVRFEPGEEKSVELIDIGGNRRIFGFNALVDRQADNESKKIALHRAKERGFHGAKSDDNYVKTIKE
T1 sequence (P69996 whole entry): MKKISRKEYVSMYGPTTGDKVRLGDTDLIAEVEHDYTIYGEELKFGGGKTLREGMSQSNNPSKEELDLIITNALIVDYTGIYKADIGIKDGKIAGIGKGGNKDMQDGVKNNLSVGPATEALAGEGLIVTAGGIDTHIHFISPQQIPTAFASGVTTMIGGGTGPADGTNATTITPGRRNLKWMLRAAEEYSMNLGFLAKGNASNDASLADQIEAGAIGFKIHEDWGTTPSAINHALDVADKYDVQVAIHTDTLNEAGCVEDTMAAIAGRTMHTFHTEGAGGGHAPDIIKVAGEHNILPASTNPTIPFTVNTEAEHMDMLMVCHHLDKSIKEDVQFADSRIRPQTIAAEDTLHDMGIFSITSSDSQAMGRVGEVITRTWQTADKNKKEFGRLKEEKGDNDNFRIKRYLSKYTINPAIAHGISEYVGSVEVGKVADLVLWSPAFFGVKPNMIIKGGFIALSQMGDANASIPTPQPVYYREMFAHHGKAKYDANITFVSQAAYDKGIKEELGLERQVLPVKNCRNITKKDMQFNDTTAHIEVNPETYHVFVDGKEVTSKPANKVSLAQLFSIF

On to `C[C@@H]1O[C@@H](O[C@H]2C(=O)c3c(O)cc(O)cc3O[C@@H]2c2ccc(O)cc2)[C@H](O)[C@H](O)[C@H]1O` [engeletin], for which the IC50 on H. pylori urease (HPU) [1] came to 5.89 ± 0.01 mM; against jack bean urease (JBU) [2], 6.67 ± 0.01 mM.
For `C[C@@H]1O[C@@H](O[C@H]2C(=O)c3c(O)cc(O)cc3O[C@@H]2c2ccc(O)c(O)c2)[C@H](O)[C@H](O)[C@H]1O` [astilbin], the IC50 is 1.47 ± 0.01 mM at H. pylori urease (HPU) [1] and 2.22 ± 0.02 mM on jack bean urease (JBU) [2]. In addition, the “Strength of urease inhibition relative to engeletin” value on H. pylori urease (HPU) [1] (urease, HPU/JBU not given) is “more than three times as strongly”. Moreover, the Ki at H. pylori urease (HPU) [3] came to 870 ± 10 µM; at jack bean urease (JBU) [4], 200 ± 10 µM. Also, the Kis at H. pylori urease (HPU) [3] (HPU) is given as 0.87 ± 0.01 mM; at jack bean urease (JBU) [4] (JBU), 1.17 ± 0.10 mM. The Inhibition type entry on H. pylori urease (HPU) [3] (HPU, Lineweaver-Burk analysis) is given as “non-competitive”; at jack bean urease (JBU) [4] (JBU, Lineweaver-Burk analysis), “mixed”.
Consider `Cc1ncc([N+](=O)[O-])n1CCO` [Metronidazole], for which the minimal inhibitory concentration (MIC) in test [5] and in test [5] (pH 7.2) was 2 µg/mL (≈ 11.7 µM) each time.
For the compound `CC(=O)NO` [AHA, Acetylhydroxamic acid, reference compound], the 50% inhibitory concentration (IC50) was found to be 4.93 ± 0.11 µg/mL on H. pylori urease (HPU) [1] (HPU, positive control) and 1.56 ± 0.10 µg/mL on jack bean urease (JBU) [2] (JBU, positive control).
